Test results reported in ChEMBL document CHEMBL4699529, “Anti-Inflammatory ent-Kaurane Diterpenoids from Isodon serra” (J Nat Prod, 2020).

Columns and labels:
[1] = Inhibition of LPS-induced NO production in mouse BV-2 cells; format: functional, cell-based
BV-2 = experiment: Cytotoxicity against mouse BV-2 cells; format: cell-based

| SMILES | IC50 [1] [µM] | Activity (BV-2) |
| --- | --- | --- |
| CC(=O)O[C@H]1CCC(C)(C)[C@@H](CO)[C@@]12COC(=O)[C@@]13C[C@@H](CC[C@H]12)[C@@H](C)C3=O | > 100 | Non-Toxic |
| C=C1[C@@H]2CC[C@H]3[C@]45CCCC(C)(C)[C@H]4[C@H](O)[C@@](O)(OC5)[C@]3(C2)[C@@H]1O | > 60 | Non-Toxic |
| CC(=O)O[C@@H]1[C@@]2(CO2)[C@@H]2CC[C@H]3[C@]45CCCC(C)(C)[C@H]4[C@H](OC(C)=O)[C@@](O)(OC5)[C@]13C2 | > 100 | Non-Toxic |
| CC(=O)O[C@H]1[C@](O)(CO)[C@@H]2CC[C@H]3[C@]45CCCC(C)(C)[C@H]4[C@H](OC(C)=O)[C@@](O)(OC5)[C@]13C2 | 44.1 | Non-Toxic |
| C=C1[C@@H](OC(C)=O)[C@]23[C@H](O)[C@H]1CC[C@H]2[C@@]12CO[C@]3(O)[C@@H](O)[C@@H]1C(C)(C)CC[C@@H]2OC(C)=O | > 100 | Non-Toxic |
| CC(=O)O[C@@H]1[C@@]2(CO2)[C@@H]2CC[C@H]3[C@]45CCCC(C)(C)[C@H]4[C@H](OC(C)=O)[C@@](O)(OC5)[C@]13[C@@H]2O | > 100 | Non-Toxic |

Compounds with a lower IC50 [1], results first:

| IC50 [1] [µM] | SMILES | Activity (BV-2) |
| --- | --- | --- |
| 3.6 | CSC(=N)N | Non-Toxic |
| 15.6 | CC(=O)O[C@H]1[C@]2(CO2)[C@@H]2CC[C@H]3[C@]45CCCC(C)(C)[C@H]4[C@H](OC(C)=O)[C@@](O)(OC5)[C@@]31C2 | Non-Toxic |
| 40.1 | CC(=O)O[C@@H]1[C@@](O)(CO)[C@@H]2CC[C@H]3[C@]45CCCC(C)(C)[C@H]4[C@H](OC(C)=O)[C@@](O)(OC5)[C@]13C2 | Non-Toxic |
| 7.3 | C=C1[C@@H]2CC[C@H]3[C@]4(C)CCCC(C)(C)[C@H]4[C@H](OC(C)=O)C(=O)[C@]3(C2)[C@@H]1OC(C)=O | Non-Toxic |
| 26.2 | C=C1[C@@H]2CC[C@H]3[C@]45CCCC(C)(C)[C@H]4[C@H](OC(C)=O)[C@@](O)(OC5)[C@]3(C2)[C@@H]1OC(C)=O | Non-Toxic |
